Patent US10577363B2, “Substituted piperidine compounds” (EPIZYME, INC., priority 2014, dated 2020)

Tests used:
SMYD3 [1] = molecular target: T1, SMYD3 (Homo sapiens (Human), UniProt Q9H7B4); assay: SMYD3 cell assay (Trimethyl-MEKK2 In-Cell Western in 293T/17 cells); assay type: cell-based; settings: 293T/17 cells; read-out: SMYD3 Cell IC50 (μM)*
In short: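 In-Cell Western ratio of trimethyl-Lys260 MEKK2 to anti-flag signal; percent inhibition from DMSO and maximum-inhibition controls, IC50 by non-linear regression, triplicates.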

SMYD3 [2] = molecular target: T1, SMYD3; assay: SMYD3 biochemical assay (SPA, 3H-SAM methylation of MEKK2 protein substrate); settings: read-out: SMYD3 Biochem IC50 (μM)*
In short: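 Tritium incorporation into GST-MEKK2 is counted by scintillation proximity after citric acid bead capture. Native human SMYD3 is preincubated with test compound for 30 min at room temperature at pH 8.0 (Tris-Cl, TCEP, BSG, Tween 20) before 3H-SAM and substrate are added; cold SAM at 100 uM final stops turnover.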

T1 sequence (Q9H7B4 whole entry): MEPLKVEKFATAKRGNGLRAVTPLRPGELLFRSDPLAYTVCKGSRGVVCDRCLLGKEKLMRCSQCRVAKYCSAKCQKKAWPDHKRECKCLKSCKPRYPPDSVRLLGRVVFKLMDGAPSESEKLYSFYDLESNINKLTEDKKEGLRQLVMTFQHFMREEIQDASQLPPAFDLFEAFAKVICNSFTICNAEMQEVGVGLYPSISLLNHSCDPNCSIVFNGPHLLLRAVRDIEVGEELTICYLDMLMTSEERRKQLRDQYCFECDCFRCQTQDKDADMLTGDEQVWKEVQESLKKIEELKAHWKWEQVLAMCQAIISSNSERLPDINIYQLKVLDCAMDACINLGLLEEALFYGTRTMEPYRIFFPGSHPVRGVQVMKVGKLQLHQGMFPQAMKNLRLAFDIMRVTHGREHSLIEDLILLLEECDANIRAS

| Structure (SMILES) | IC50 (SMYD3 [1]) | IC50 (SMYD3 [2]) |
| --- | --- | --- |
| O=C1Cc2cc(S(=O)(=O)N3[C@@H]4CC[C@H]3C[C@@H](NC(=O)c3cc(C5CC5)on3)C4)ccc2N1 [compound 433, 5-cyclopropyl-N-((1R,3r,5S)-8-((2-oxoindolin-5-yl)sulfonyl)-8-azabicyclo[3.2.1]octan-3-yl)isoxazole-3-carboxamide] | > 10 µM | 4.19 µM |
| O=C(N[C@H]1C[C@H]2CC[C@@H](C1)N2S(=O)(=O)c1ccc2[nH]c(=O)[nH]c2c1)c1cc(C2CC2)on1 [compound 434, 5-cyclopropyl-N-((1R,3r,5S)-8-((2-oxo-2,3-dihydro-1H-benzo[d]imidazol-5-yl)sulfonyl)-8-azabicyclo[3.2.1]octan-3-yl)isoxazole-3-carboxamide] | > 10 µM | 2.41 µM |
| O=C(N[C@@H]1C[C@H]2CC[C@@H](C1)N2S(=O)(=O)CCN1CCCC1)c1cc(C2CC2)on1 [compound 435, 5-cyclopropyl-N-((1R,3s,5S)-8-((2-(pyrrolidin-1-yl)ethyl)sulfonyl)-8-azabicyclo[3.2.1]octan-3-yl)isoxazole-3-carboxamide] | 5.59 µM | 2 µM |
| O=C(N[C@H]1CCN(S(=O)(=O)CCN2CCCC2)[C@@H](Cc2ccccc2)C1)c1cc(C2CC2)on1 [compound 437, N-((2S,4S)-2-benzyl-1-((2-(pyrrolidin-1-yl)ethyl)sulfonyl)piperidin-4-yl)-5-cyclopropylisoxazole-3-carboxamide] | 4.62 µM | 1 µM |
| O=C(N[C@@H]1CCN(S(=O)(=O)CCCN2CCOCC2)[C@@H](Cc2ccccc2)C1)c1cc(C2CC2)on1 [compound 438, N-((2S,4R)-2-benzyl-1-((3-morpholinopropyl)sulfonyl)piperidin-4-yl)-5-cyclopropylisoxazole-3-carboxamide] | > 10 µM | 9.18 µM |
| O=C(N[C@@H]1CCN(S(=O)(=O)CCCN2CCOCC2)[C@H](Cc2ccccc2)C1)c1cc(C2CC2)on1 [compound 439, N-((2R,4R)-2-benzyl-1-((3-morpholinopropyl)sulfonyl)piperidin-4-yl)-5-cyclopropylisoxazole-3-carboxamide] | > 10 µM | > 10 µM |
| O=C(N[C@@H]1C[C@H]2CC[C@@H](C1)N2S(=O)(=O)CCN1CCOCC1)c1cc(C2CC2)on1 [compound 440, 5-cyclopropyl-N-((1R,3s,5S)-8-((2-morpholinoethyl)sulfonyl)-8-azabicyclo[3.2.1]octan-3-yl)isoxazole-3-carboxamide] | > 10 µM | > 10 µM |
| O=C(N[C@H]1C[C@H]2CC[C@@H](C1)N2S(=O)(=O)CCN1CCOCC1)c1cc(C2CC2)on1 [compound 441, 5-cyclopropyl-N-((1R,3r,5S)-8-((2-morpholinoethyl)sulfonyl)-8-azabicyclo[3.2.1]octan-3-yl)isoxazole-3-carboxamide] | 3.67 µM | 1.61 µM |
| O=C(NC1CC2CCCC(C1)N2S(=O)(=O)CCN1CCCC1)c1cc(C2CC2)on1 (centres unmarked) [compound 442, 5-cyclopropyl-N-(9-((2-(pyrrolidin-1-yl)ethyl)sulfonyl)-9-azabicyclo[3.3.1]nonan-3-yl)isoxazole-3-carboxamide] | 4.55 µM | 1.11 µM |
| O=C(NC1CC2CCCC(C1)N2S(=O)(=O)CCN1CCOCC1)c1cc(C2CC2)on1 (centres unmarked) [compound 443, 5-cyclopropyl-N-(9-((2-morpholinoethyl)sulfonyl)-9-azabicyclo[3.3.1]nonan-3-yl)isoxazole-3-carboxamide] | > 10 µM | > 10 µM |
| CNCCCS(=O)(=O)N1CC[C@H](NC(=O)c2cc(C3CC3)on2)C[C@@H]1C [compound 444, 5-cyclopropyl-N-((2S,4S)-2-methyl-1-((3-(methylamino)propyl)sulfonyl)piperidin-4-yl)isoxazole-3-carboxamide] | 0.181 µM | 0.0131 µM |
| CNc1ccc(S(=O)(=O)N2CC[C@H](NC(=O)c3cc(C4CC4)on3)C[C@@H]2C)cn1 [compound 446, 5-cyclopropyl-N-((2S,4S)-2-methyl-1-((6-(methylamino)pyridin-3-yl)sulfonyl)piperidin-4-yl)isoxazole-3-carboxamide] | 2.25 µM | 0.89 µM |
| CNc1ccc(S(=O)(=O)N2CC[C@@H](NC(=O)c3cc(C4CC4)on3)C[C@H]2C)cn1 [compound 449, 5-cyclopropyl-N-((2R,4R)-2-methyl-1-((6-(methylamino)pyridin-3-yl)sulfonyl)piperidin-4-yl)isoxazole-3-carboxamide] | > 10 µM | > 10 µM |
| CC(C)CNc1ccc(S(=O)(=O)N2CC[C@H](NC(=O)c3cc(C4CC4)on3)C[C@@H]2C)cn1 [compound 450, 5-cyclopropyl-N-((2S,4S)-1-((6-(isobutylamino)pyridin-3-yl)sulfonyl)-2-methylpiperidin-4-yl)isoxazole-3-carboxamide] | 3.48 µM | 1.1 µM |
| CC(C)CNc1ccc(S(=O)(=O)N2CC[C@@H](NC(=O)c3cc(C4CC4)on3)C[C@H]2C)cn1 [compound 453, 5-cyclopropyl-N-((2R,4R)-1-((6-(isobutylamino)pyridin-3-yl)sulfonyl)-2-methylpiperidin-4-yl)isoxazole-3-carboxamide] | > 10 µM | 7.19 µM |
| CC(C)CN(C)c1ccc(S(=O)(=O)N2CC[C@@H](NC(=O)c3cc(C4CC4)on3)C[C@H]2C)cn1 [compound 454, 5-cyclopropyl-N-((2R,4R)-1-((6-(isobutyl(methyl)amino)pyridin-3-yl)sulfonyl)-2-methylpiperidin-4-yl)isoxazole-3-carboxamide] | > 10 µM | > 10 µM |
| COCCN(C)c1ccc(S(=O)(=O)N2CC[C@@H](NC(=O)c3cc(C4CC4)on3)C[C@H]2C)cn1 [compound 455, 5-cyclopropyl-N-((2R,4R)-1-((6-((2-methoxyethyl)(methyl)amino)pyridin-3-yl)sulfonyl)-2-methylpiperidin-4-yl)isoxazole-3-carboxamide] | > 10 µM | > 10 µM |
| COCCNc1ccc(S(=O)(=O)N2CC[C@@H](NC(=O)c3cc(C4CC4)on3)C[C@H]2C)cn1 [compound 457, 5-cyclopropyl-N-((2R,4R)-1-((6-((2-methoxyethyl)amino)pyridin-3-yl)sulfonyl)-2-methylpiperidin-4-yl)isoxazole-3-carboxamide] | > 10 µM | > 10 µM |
| C[C@@H]1C[C@H](NC(=O)c2cc(C3CC3)on2)CCN1S(=O)(=O)c1ccc(NCCN2CCOCC2)nc1 [compound 459, 5-cyclopropyl-N-((2R,4R)-2-methyl-1-((6-((2-morpholinoethyl)amino)pyridin-3-yl)sulfonyl)piperidin-4-yl)isoxazole-3-carboxamide] | 4.58 µM | 2.36 µM |
| C[C@@H]1C[C@H](NC(=O)c2cc(C3CC3)on2)CCN1S(=O)(=O)c1ccc(N(C)CCN2CCOCC2)nc1 [compound 460, 5-cyclopropyl-N-((2R,4R)-2-methyl-1-((6-(methyl(2-morpholinoethyl)amino)pyridin-3-yl)sulfonyl)piperidin-4-yl)isoxazole-3-carboxamide] | > 10 µM | > 10 µM |
| C[C@H]1C[C@@H](NC(=O)c2cc(C3CC3)on2)CCN1S(=O)(=O)c1ccc(N(C)CCN)nc1 [compound 461, N-((2S,4S)-1-((6-((2-aminoethyl)(methyl)amino)pyridin-3-yl)sulfonyl)-2-methylpiperidin-4-yl)-5-cyclopropylisoxazole-3-carboxamide] | 3.85 µM | 0.0142 µM |
| C[C@@H]1C[C@H](NC(=O)c2cc(C3CC3)on2)CCN1S(=O)(=O)c1ccc(N(C)CCN)nc1 [compound 463, N-((2R,4R)-1-((6-((2-aminoethyl)(methyl)amino)pyridin-3-yl)sulfonyl)-2-methylpiperidin-4-yl)-5-cyclopropylisoxazole-3-carboxamide] | 4.33 µM | 0.163 µM |
| C[C@@H]1C[C@H](NC(=O)c2cc(C3CC3)on2)CCN1S(=O)(=O)c1ccc(NCCN)nc1 [compound 464, N-((2R,4R)-1-((6-((2-aminoethyl)amino)pyridin-3-yl)sulfonyl)-2-methylpiperidin-4-yl)-5-cyclopropylisoxazole-3-carboxamide] | 3.3 µM | 0.0897 µM |
| CC(C)CNc1ccc(S(=O)(=O)N2C3CCCC2CC(NC(=O)c2cc(C4CC4)on2)C3)cn1 (centres unmarked) [compound 465, 5-cyclopropyl-N-(9-((6-(isobutylamino)pyridin-3-yl)sulfonyl)-9-azabicyclo[3.3.1]nonan-3-yl)isoxazole-3-carboxamide] | 6.16 µM | 3.12 µM |
| CNc1ncccc1S(=O)(=O)N1CC[C@H](NC(=O)c2cc(C3CC3)on2)C[C@@H]1C [compound 467, 5-cyclopropyl-N-((2S,4S)-2-methyl-1-((2-(methylamino)pyridin-3-yl)sulfonyl)piperidin-4-yl)isoxazole-3-carboxamide] | 5.76 µM | 3.74 µM |
| C[C@H]1C[C@@H](NC(=O)c2cc(C3CC3)on2)CCN1S(=O)(=O)c1cccnc1NCCN [compound 475, N-((2S,4S)-1-((2-((2-aminoethyl)amino)pyridin-3-yl)sulfonyl)-2-methylpiperidin-4-yl)-5-cyclopropylisoxazole-3-carboxamide] | 1.34 µM | 0.0865 µM |
| C[C@H]1C[C@@H](NC(=O)c2cc(C3CC3)on2)CCN1S(=O)(=O)c1cccc(C(N)=O)c1 [compound 477, N-((2S,4S)-1-((3-carbamoylphenyl)sulfonyl)-2-methylpiperidin-4-yl)-5-cyclopropylisoxazole-3-carboxamide] | 3.26 µM | 0.932 µM |
| C[C@H]1C[C@@H](NC(=O)c2cc(C3CC3)on2)CCN1C(=O)N1CCN(Cc2ccccc2)CC1 [compound 478, N-((2S,4S)-1-(4-benzylpiperazine-1-carbonyl)-2-methylpiperidin-4-yl)-5-cyclopropylisoxazole-3-carboxamide] | > 10 µM | > 10 µM |
